Experiments:
AMARE [1] = assay: Post-emergence herbicidal action against AMARE; format: in vivo, Amaranthus retroflexus; conditions: visual rating about 3 weeks after treatment
Outline: (§1)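 Each pot held twin-sown weeds in sandy loam, treated post-emergence 2 to 3 weeks after sowing at the one-leaf stage. Compound was given as a foliar spray at 1280 or 320 g/ha in 600 litres per hectare water with 0.5% additive. Visual scoring against untreated controls followed after about 3 weeks.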

VIOTR [2] = assay: Pre-emergence herbicidal action against VIOTR; format: in vivo, Viola tricolor; conditions: 1280 g/ha, scored visually after about 3 weeks vs untreated controls
Outline: (§2)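 Scoring is visual, in percent relative to untreated pots, roughly 3 weeks after soil-surface application. Rates were 1280 or 320 g/ha, delivered as WP or EC preparations with 0.5% additive in 600 L/ha water onto freshly sown, covered sandy loam.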

harmful plants [3] = assay: Pre-emergence herbicidal action, summary of Tables 4.1-4.15; format: in vivo; conditions: result in words
Outline: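 Percent herbicidal action (100% = plants dead, 0% = like controls) was assessed visually about 3 weeks after treatment. Application rates of 1280 or 320 g/ha were applied to the covering soil of freshly sown sandy-loam pots, in 600 l/ha water with 0.5% additive, before emergence.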

SETVI [4] = assay: Pre-emergence herbicidal action against SETVI; format: in vivo, Setaria viridis; conditions: 1280 g/ha, scored visually after about 3 weeks vs untreated controls
Outline: as §2

PHBPU [5] = assay: Pre-emergence herbicidal action against PHBPU; format: in vivo, Pharbitis purpurea; conditions: 1280 g/ha, scored visually after about 3 weeks vs untreated controls
Source text: (§3) Seeds of mono- and dicotyledonous weed plants are placed in plastic pots in sandy loam soil (doubly sown with one species each of mono- or dicotyledonous weed plants per pot) and covered with soil. The compounds of the invention, formulated in the form of wettable powders (WP) or as emulsion concentrates (EC), are then applied onto the surface of the covering soil as aqueous suspension or emulsion with addition of 0.5% additive at a water application rate equivalent to 600 litres per hectare. After the treatment, the pots are placed in a greenhouse and kept under good growth conditions for the trial plants. After about 3 weeks, the effect of the preparations is scored visually in comparison with untreated controls as percentages. For example, 100% activity=the plants have died, 0% activity=like control plants. [table] Tables 4.1-4.15 below show the effects of selected compounds of the general formula (I) according to Tables 1 to 3 on various harmful plants at an application rate corresponding to 1280 or 320 g/ha, which have been obtained by the aforementioned experimental method.

ALOMY [6] = assay: Post-emergence herbicidal action against ALOMY; format: in vivo, Alopecurus myosuroides; conditions: 1280 g/ha, post-emergence at one-leaf stage, rated visually after about 3 weeks vs untreated controls
Outline: as §1

ALOMY [7] = assay: Pre-emergence herbicidal action against ALOMY; format: in vivo, Alopecurus myosuroides; conditions: scored visually after about 3 weeks vs untreated controls, 100% = plants have died, 0% = like control plants
Source text: as §3

STEME [8] = assay: Pre-emergence herbicidal action against STEME; format: in vivo, Stellaria media; conditions: scored visually after about 3 weeks vs untreated controls
Outline: as §2

MATIN [9] = assay: Post-emergence herbicidal action against MATIN; format: in vivo, Matricaria inodora; conditions: visual rating about 3 weeks after treatment
Outline: as §1

MATIN [10] = assay: Pre-emergence herbicidal action against MATIN; format: in vivo, Matricaria inodora; conditions: 1280 g/ha, scored visually after about 3 weeks vs untreated controls
Outline: as §2

CYPES = assay: Pre-emergence herbicidal action against CYPES; format: in vivo, Cyperus esculentus; conditions: scored visually after about 3 weeks vs untreated controls, 100% = plants have died, 0% = like control plants
Source text: as §3

ECHCG [11] = assay: Post-emergence herbicidal action against ECHCG; format: in vivo, Echinochloa crus-galli; conditions: 1280 g/ha, post-emergence at one-leaf stage, rated visually after about 3 weeks vs untreated controls
Outline: as §1

STEME [12] = assay: Post-emergence herbicidal action against STEME; format: in vivo, Stellaria media; conditions: visual rating about 3 weeks after treatment
Outline: as §1

POLCO [13] = assay: Pre-emergence herbicidal action against POLCO; format: in vivo, Polygonum convolvulus; conditions: 320 g/ha, scored visually after about 3 weeks vs untreated controls
Outline: as §2

AMARE [14] = assay: Pre-emergence herbicidal action against AMARE; format: in vivo, Amaranthus retroflexus; conditions: scored visually after about 3 weeks vs untreated controls; for Pre-emergence action at 320 g/ha against AMARE in %: 100% = plants have died, 0% = like control plants; for Pre-emergence action against AMARE in %: 1280 g/ha
Outline: as §2

PHBPU [15] = assay: Post-emergence herbicidal action against PHBPU; format: in vivo, Pharbitis purpurea; conditions: 320 g/ha, visual rating about 3 weeks after treatment
Outline: as §1

ECHCG [16] = assay: Pre-emergence herbicidal action against ECHCG; format: in vivo, Echinochloa crus-galli; conditions: scored visually after about 3 weeks vs untreated controls, 100% = plants have died, 0% = like control plants
Outline: as §2

VERPE = assay: Pre-emergence herbicidal action against VERPE; format: in vivo, Veronica persica; conditions: 320 g/ha, scored visually after about 3 weeks vs untreated controls
Outline: as §2

harmful plants [17] = assay: Post-emergence herbicidal action, summary of Tables 5.1-5.16; format: in vivo; conditions: result in words
Protocol: Seeds of mono- and dicotyledonous weed plants are placed in plastic pots in sandy loam soil (twin sowing with one species each of mono- or dicotyledonous weed plants per pot), covered with soil and cultivated in a greenhouse under controlled growth conditions. 2 to 3 weeks after sowing, the test plants are treated at the one-leaf stage. The compounds of the invention, formulated in the form of wettable powders (WP) or as emulsion concentrates (EC), are applied to the green parts of the plants as aqueous suspension or emulsion with addition of 0.5% additive at a water application rate equivalent to 600 litres per hectare. After the test plants have been kept in the greenhouse under optimum growth conditions for about 3 weeks, the activity of the preparations is rated visually in comparison to untreated controls. For example, 100% activity=the plants have died, 0% activity=like control plants. Tables 5.1-5.16 below show the effects of selected compounds of the general formula (I) according to Tables 1 to 3 on various harmful plants at an application rate corresponding to 1280 or 320 g/ha, which have been obtained by the aforementioned experimental method. As the results from Tables 5.1-5.16 show, compounds of the invention have good herbicidal post-emergence efficacy against a broad spectrum of weed grasses and weeds. […] For example, compounds Nos. I-002, I-006, I-022, I-056 and I-072 applied by the post-emergence method have very good herbicidal action (80% to 100% herbicidal action) against harmful plants such as Alopecurus myosuroides, Amaranthus retroflexus, Matricaria inodora, Setaria viridis, Pharbitis purpurea and Stellaria media at an application rate of 1.28 kg of active substance or less per hectare.

SETVI [18] = assay: Post-emergence herbicidal action against SETVI; format: in vivo, Setaria viridis; conditions: 1280 g/ha, post-emergence at one-leaf stage, rated visually after about 3 weeks vs untreated controls
Outline: as §1

POLCO [19] = assay: Post-emergence herbicidal action against POLCO; format: in vivo, Polygonum convolvulus; conditions: 320 g/ha, visual rating about 3 weeks after treatment
Outline: as §1

VIOTR [20] = assay: Post-emergence herbicidal action against VIOTR; format: in vivo, Viola tricolor; conditions: 320 g/ha, visual rating about 3 weeks after treatment
Outline: as §1

| Compound | Post-emergence action against AMARE in % (AMARE [1]; 1280 g/ha) [%] | Pre-emergence action against VIOTR in % (VIOTR [2]) [%] | herbicidal efficacy against harmful plants in the case of pre-emergence treatment (harmful plants [3]) | Pre-emergence action against SETVI in % (SETVI [4]) [%] | Pre-emergence action against PHBPU in % (PHBPU [5]) [%] | Post-emergence action against ALOMY in % (ALOMY [6]) [%] | Pre-emergence action at 1280 g/ha against ALOMY in % (ALOMY [7]) [%] | Pre-emergence action against STEME in % (STEME [8]; 320 g/ha) [%] | Pre-emergence action against STEME in % (STEME [8]; 1280 g/ha) [%] | Post-emergence action against MATIN in % (MATIN [9]; 1280 g/ha) [%] | Pre-emergence action against MATIN in % (MATIN [10]) [%] | Pre-emergence action at 1280 g/ha against CYPES in % (CYPES) [%] | Post-emergence action against ECHCG in % (ECHCG [11]) [%] | Post-emergence action against STEME in % (STEME [12]; 1280 g/ha) [%] | Pre-emergence action at 320 g/ha against AMARE in % (AMARE [14]) [%] | Pre-emergence action against AMARE in % (AMARE [14]) [%] | Post-emergence action against PHBPU in % (PHBPU [15]) [%] | Pre-emergence action at 1280 g/ha against ECHCG in % (ECHCG [16]) [%] | also measured |
| --- | --- | --- | --- | --- | --- | --- | --- | --- | --- | --- | --- | --- | --- | --- | --- | --- | --- | --- | --- |
| CCOC(=O)COc1nn(-c2ccccc2)c(-c2ccccc2)c1Br [I-070] | 80 | 90 | good herbicidal efficacy | 90 | 90 | 80 | 90 | 80 | 90 | 80 | 90 | 80 | 80 | 90 | 100 | 100 | 90 | 90 | Pre-emergence action against POLCO in % (POLCO [13]): 80% |
| COC(=O)COc1nn(-c2cccc(F)c2)c(-c2cccc(F)c2)c1Cl [I-003] | 80 | – | good herbicidal efficacy | – | 80 | – | – | – | 100 | 80 | 100 | 100 | 80 | 80 | 100 | 100 | 80 | – | Post-emergence action against MATIN in % (MATIN [9]; 320 g/ha): 80%; Pre-emergence action against VERPE in % (VERPE): 100%; Post-emergence action against STEME in % (STEME [12]; 320 g/ha): 80%; herbicidal efficacy against harmful plants when applied post-emergence (harmful plants [17]): very good herbicidal efficacy |
| COC(=O)C(C)Oc1nn(-c2ccccc2F)c(-c2ccccc2)c1C#N (centres unmarked) [I-061] | 80 | 90 | good herbicidal efficacy | 100 | 90 | 90 | 90 | 90 | 100 | – | 90 | 90 | 80 | 80 | 90 | 100 | 80 | 90 | Post-emergence action against AMARE in % (AMARE [1]; 320 g/ha): 80%; Post-emergence action against SETVI in % (SETVI [18]): 80%; Post-emergence action against POLCO in % (POLCO [19]): 80%; Post-emergence action against VIOTR in % (VIOTR [20]): 80% |

Reference: patent US20230066946A1, “1,5-DIPHENYLPYRAZOLYL-3-OXYALKYL ACIDS AND 1-PHENYL-5-THIENYLPYRAZOLYL-3-OXYALKYL ACIDS AND THE USE THEREOF FOR CONTROL OF UNWANTED PLANT GROWTH” (Bayer Aktiengesellschaft, priority 2019, published 2023)
